Source: article PMC10791743, “Selective CK1α degraders exert antiproliferative activity against a broad range of human cancer cell lines” (Nature Communications, 2024)
Where “and” joins values, the source holds several entries; their conditions need not be identical. Identical values can stand only once. Entries after “also recorded” stand apart in the source; their conditions may differ. Like-named read-outs stand apart in the source and are kept apart here.

Legend:
[1] = tested on: 115 human cancer cell lines; assay: Oncolines panel cell viability assay (ATPlite, 72 h); type: cell-based; conditions: for IC50: Homo sapiens
Description: To evaluate the compound’s effect and potential therapeutic application across a diverse range of human cancers, we profiled SJ3149 in Oncolines® panel consisting of 115 human cancer cell lines, of which 86 were solid tumor and 29 hematologic cell lines, including MOLM-13. Effect on cell viability was monitored using ATPLite™ (Perkin Elmer), which measures intracellular ATP content as an indirect readout of cell number, like CellTiter Glo.
Cell lines were purchased from the American Type Culture Collection (ATCC) (Manassas, VA, USA) or the German Collection of Microorganisms and Cell Cultures (DSMZ) (Braunschweig, Germany). All experiments were carried out within ten passages of the original vials. Authenticity of the cell lines was confirmed by short tandem repeat analysis at the respective provider.
Cell viability assays were performed as previously described. In brief, cells were seeded in a 384-well plate at an optimized density. The starting cell number was determined after 24 h incubation by adding ATPlite 1Step (Perkin Elmer, Groningen, the Netherlands) to each well and recording luminescence on an Envision multimode reader (Perkin Elmer, Waltham, MA). After the addition of a duplicate 9-point dilution series of SJ3149, cells were incubated for another 72 h, followed by cell counting using ATPlite 1Step. The dilution series ranged from 3.2 to 31,600 nM or was diluted 100-fold for the most sensitive cell lines to ideally capture the complete dose–response curve. Percentage viability was determined at each compound concentration by relating the observed signal to a vehicle-treated control, that is, medium containing 0.4% (v/v) DMSO. Compound IC50 values were calculated by fitting a 4-parameter logistic curve to the percentage viability values using IDBS XLfit5 (IDBS, Guildford, UK). The IC50 was limited to the maximum tested compound concentration when the IC50 exceeded the maximum tested concentration.

[2] = tested on: MOLM-13 cells overexpressing FLAG-tagged wild type CK1α; assay: CK1α mutant rescue, CTG viability, FLAG-CK1α wild type MOLM-13; type: cell-based, human
Protocol: To evaluate the contribution of the CK1α degradation in SJ3149-mediated cytotoxicity, we utilized the degradation-resistant mutant CK1α G40N[41]. MOLM-13 cells were transduced with lentivirus to overexpress FLAG-tagged wild type CK1α or the G40N mutant, which removes the essential glycine in the CK1α degron G-loop.
The media was changed after cells rested in the 37 °C incubator overnight. […] As described above in the Molecular Glue Library Screening section, transduced MOLM-13 cells were seeded in 384-well plates at 1250 cells per well and allowed to rest overnight. 30 nl of CK1α degraders of interest were deposited on the cells using an Echo 650 acoustic liquid handler […]. […] This was done twice for a total of six technical replicates.

Structure (SMILES): O=C1CCC(N2Cc3cc(Nc4noc5ccccc45)ccc3C2=O)C(=O)N1 (centres unmarked) [SJ3149]
- Inhibition of viability in Oncolines panel cell lines ([1]; ATPlite, 72 h): potently inhibited the viability of AML cell lines; also recorded: potently inhibited the viability of multiple cell lines derived from solid tumors; also recorded: low nanomolar or even sub-nanomolar potency
- IC50 ([1]; 769-P, cell line 769-P, Renal cell carcinoma, TP53 Wild-type, read-out: IC50): 0.101 µM
- IC50 ([1]; A204, cell line A-204, Embryonal rhabdomyosarcoma, TP53 Wild-type, read-out: IC50): 0.016 µM
- IC50 ([1]; A498, cell line A-498, Renal cell carcinoma, TP53 Wild-type, read-out: IC50): 5.67 µM
- IC50 ([1]; A549, cell line A-549, Lung adenocarcinoma, TP53 Wild-type, read-out: IC50): 0.038 µM
- IC50 ([1]; A-375, cell line A375, Amelanotic melanoma, TP53 Wild-type, read-out: IC50): 0.033 µM
- IC50 ([1]; ACHN, cell line ACHN, Papillary renal cell carcinoma, TP53 Wild-type, read-out: IC50): 0.187 µM
- IC50 ([1]; AU565, cell line AU-565, Breast adenocarcinoma, TP53 Mutant, read-out: IC50): 19.2 µM
- IC50 ([1]; B-cell, HT, Diffuse large B-cell lymphoma, read-out: IC50): > 31.6 µM
- IC50 ([1]; B-cell, RL, Diffuse large B-cell lymphoma, TP53 Mutant, read-out: IC50): 27.2 µM
- IC50 ([1]; B-cell, cell line DB, Diffuse large B-cell lymphoma, TP53 Mutant, read-out: IC50): > 31.6 µM
- IC50 ([1]; BT-20, cell line BT-20, Invasive ductal carcinoma, TP53 Mutant, read-out: IC50): 0.03 µM
- IC50 ([1]; BT-549, cell line BT-549, Invasive ductal carcinoma, TP53 Mutant, read-out: IC50): 0.012 µM
- IC50 ([1]; CCRF-CEM, cell line CCRF-CEM, Childhood T acute lymphoblastic leukemia, TP53 Mutant, read-out: IC50): 24.1 µM
- IC50 ([1]; CCRF-HSB-2, CCRF-HSB-2 cells, T-ALL, read-out: IC50): 0.016 µM
- IC50 ([1]; CCRF-HSB-2, cell line CCRF-HSB-2, Childhood T acute lymphoblastic leukemia, TP53 Wild-type, read-out: IC50): 0.016 µM
- IC50 ([1]; CTV-1, cell line CTV-1, Adult T acute lymphoblastic leukemia, TP53 Wild-type, read-out: IC50): 0.212 µM
- IC50 ([1]; DU-4475, cell line DU4475, Breast carcinoma, TP53 Wild-type, read-out: IC50): 0.016 µM
- IC50 ([1]; HuTu80, HuTu 80, Duodenal adenocarcinoma, read-out: IC50): 0.0046 µM
- IC50 ([1]; J82, Bladder carcinoma, read-out: IC50): > 31.6 µM
- IC50 ([1]; JAR, Gestational choriocarcinoma, read-out: IC50): 0.069 µM
- IC50 ([1]; JM-1, B acute lymphoblastic leukemia, read-out: IC50): 0.039 µM
- IC50 ([1]; Jurkat E6.1, Jurkat E6.1, Childhood T acute lymphoblastic leukemia, read-out: IC50): 21.2 µM
- IC50 ([1]; KATO III, Signet ring cell gastric adenocarcinoma, read-out: IC50): 31.4 µM
- IC50 ([1]; KG-1, Adult acute myeloid leukemia, read-out: IC50): 3.48 µM
- IC50 ([1]; KLE, Endometrial adenocarcinoma, read-out: IC50): 0.028 µM
- IC50 ([1]; KU812, KU812, Chronic myelogenous leukemia, read-out: IC50): 0.00075 µM
- IC50 ([1]; LNCaP, LNCaP FGC, Prostate carcinoma, read-out: IC50): 0.091 µM
- IC50 ([1]; LS174T, LS 174T, Colon adenocarcinoma, read-out: IC50): 0.016 µM
- IC50 ([1]; LoVo, Colon adenocarcinoma, read-out: IC50): 0.00028 µM
- IC50 ([1]; MCF7, MCF7, Invasive ductal carcinoma, read-out: IC50): 0.018 µM
- IC50 ([1]; MOLM-13, MOLM-13, Adult acute myeloid leukemia, read-out: IC50): 0.0042 µM
- IC50 ([1]; MOLM-13, MOLM-13 cells, AML, read-out: IC50): 0.0042 µM
- IC50 ([1]; MOLT-4, MOLT-4, Adult T acute lymphoblastic leukemia, read-out: IC50): 0.035 µM
- IC50 ([1]; NB4, Acute promyelocytic leukemia with PML-RARA, read-out: IC50): > 31.6 µM
- IC50 ([1]; NCCIT, Testicular embryonal carcinoma, read-out: IC50): 0.0042 µM
- IC50 ([1]; NOMO-1, NOMO-1, Adult acute monocytic leukemia, read-out: IC50): 0.053 µM
- IC50 ([1]; PA-1, Ovarian mixed germ cell tumor, TP53 Wild-type, read-out: IC50): 0.0028 µM
- IC50 ([1]; PC-3, Prostate carcinoma, TP53 Mutant, read-out: IC50): > 31.6 µM
- IC50 ([1]; RD, Embryonal rhabdomyosarcoma, TP53 Mutant, read-out: IC50): 0.104 µM
- IC50 ([1]; RKO, Colon carcinoma, TP53 Wild-type, read-out: IC50): 26.8 µM
- IC50 ([1]; RL95-2, RL95-2, Endometrial adenosquamous carcinoma, TP53 Mutant, read-out: IC50): 0.058 µM
- IC50 ([1]; RPMI 8402, RPMI-8402, Childhood T acute lymphoblastic leukemia, TP53 Wild-type, read-out: IC50): 24.2 µM
- IC50 ([1]; RS4-11, RS4-11, Adult B acute lymphoblastic leukemia, TP53 Wild-type, read-out: IC50): 0.0021 µM
- IC50 ([1]; RT4, Bladder carcinoma, TP53 Wild-type, read-out: IC50): 1.24 µM
- IC50 ([1]; SEM, Childhood B acute lymphoblastic leukemia, TP53 Mutant, read-out: IC50): 0.134 µM
- IC50 ([1]; SET-2, SET-2, Adult acute megakaryoblastic leukemia, TP53 Mutant, read-out: IC50): 0.032 µM
- IC50 ([1]; SJCRH30, Alveolar rhabdomyosarcoma, TP53 Mutant, read-out: IC50): > 31.6 µM
- IC50 ([1]; SK-N-FI, Neuroblastoma, TP53 Mutant, read-out: IC50): 0.036 µM
- IC50 ([1]; SR, Anaplastic large cell lymphoma, TP53 Mutant, read-out: IC50): 0.058 µM
- IC50 ([1]; SR, SR cells, ALCL, read-out: IC50): 0.058 µM
- IC50 ([1]; SU-DHL-1, SU-DHL-1, Anaplastic large cell lymphoma, TP53 Mutant, read-out: IC50): 12.9 µM
- IC50 ([1]; SU-DHL-6, SU-DHL-6, Diffuse large B-cell lymphoma, TP53 Mutant, read-out: IC50): 0.079 µM
- IC50 ([1]; SW48, SW48, Colon adenocarcinoma, TP53 Wild-type, read-out: IC50): 0.019 µM
- IC50 ([1]; SW900, SW900, Squamous cell lung carcinoma, TP53 Mutant, read-out: IC50): 0.419 µM
- IC50 ([1]; SW982, SW982, Biphasic synovial sarcoma, TP53 Wild-type, read-out: IC50): 0.011 µM
- IC50 ([1]; T24, Bladder carcinoma, TP53 Mutant, read-out: IC50): > 31.6 µM
- IC50 ([1]; cell line 5637, Bladder carcinoma, TP53 Mutant, read-out: IC50): 27.8 µM
- IC50 ([1]; cell line A388, Squamous cell carcinoma, TP53 Mutant, read-out: IC50): > 31.6 µM
- IC50 ([1]; cell line AP-1060, Acute promyelocytic leukemia with PML-RARA, TP53 Unknown, read-out: IC50): 0.0013 µM
- IC50 ([1]; cell line ES-2, Ovarian clear cell adenocarcinoma, TP53 Mutant, read-out: IC50): > 31.6 µM
- IC50 ([1]; cell line TT (Hereditary thyroid gland medullary carcinoma), TP53 Wild-type, read-out: IC50): 0.0022 µM
- IC50 ([1]; multiple cell lines from diverse tumor tissue origins, read-out: IC50 in insensitive cell lines): > 31.6 µM
- cell viability percentages, CK1a ([2]; Concentration 0.000542): 105.205% and 58.6715% and 64.466% and 67.6161% and 69.6541% and 82.1036%
- cell viability percentages, CK1a ([2]; Concentration 0.001625): 74.2908% and 52.9731% and 67.1789% and 57.7783% and 62.7672% and 68.828%
- cell viability percentages, CK1a ([2]; Concentration 0.004875): 36.1307% and 42.7391% and 40.1045% and 39.1839% and 40.0413% and 49.9053%
- cell viability percentages, CK1a ([2]; Concentration 0.043872): 2.187% and 2.943% and 4.508% and 8.798% and 6.315% and 7.182%
- cell viability percentages, CK1a ([2]; Concentration 0.131617): 3.39% and 3.498% and 5.044% and 4.581% and 3.4782% and 4.037%
- cell viability percentages, CK1a ([2]; Concentration 0.394851): 2.449% and 1.756% and 2.718% and 2.322% and 1.473% and 1.9709%
- cell viability percentages, CK1a ([2]; Concentration 1.18455): 1.709% and 1.723% and 2.012% and 1.573% and 1.103% and 1.1327%
- cell viability percentages, CK1a ([2]; Concentration 3.55366): 1.548% and 0.8978% and 0.8701% and 0.5259% and 0.4164% and 0.8076%
- Bottom (line fit, sigmoidal 4PL) of cell viability, CK1a ([2]; FLAG-CK1a WT cells): 1.012%
- Top (line fit, sigmoidal 4PL) of cell viability, CK1a ([2]; FLAG-CK1a WT cells): 80.73%
- IC50 ([2]; Homo sapiens, MOLM-13, read-out: IC50 (line fit, sigmoidal 4PL) of cell viability, CK1a): 0.00526 µM
